Measured values: patent US8846699B2, “Quinazoline derivatives as a multiplex inhibitor and method for the preparation thereof” (Hanmi Pharm. Co., Ltd., priority 2005, dated 2014)

How the values were obtained:
EGFR1 (HER-1) = EGFR1 (HER-1) (Homo sapiens (Human), UniProt P00533); experiment: EGFR1 (HER-1) enzyme assay, fluorescence polarization; format: biochemical; settings: 100 μM ATP, poly(Glu, Tyr) substrate
VEGFR2 (KDR) = VEGFR2 (KDR) (Homo sapiens (Human), UniProt P35968); experiment: VEGFR2 (KDR) enzyme assay, fluorescence polarization; format: biochemical; settings: 5 μM ATP, poly(Glu, Tyr) substrate
Chain of VEGFR2 (KDR) (P35968 20-1356): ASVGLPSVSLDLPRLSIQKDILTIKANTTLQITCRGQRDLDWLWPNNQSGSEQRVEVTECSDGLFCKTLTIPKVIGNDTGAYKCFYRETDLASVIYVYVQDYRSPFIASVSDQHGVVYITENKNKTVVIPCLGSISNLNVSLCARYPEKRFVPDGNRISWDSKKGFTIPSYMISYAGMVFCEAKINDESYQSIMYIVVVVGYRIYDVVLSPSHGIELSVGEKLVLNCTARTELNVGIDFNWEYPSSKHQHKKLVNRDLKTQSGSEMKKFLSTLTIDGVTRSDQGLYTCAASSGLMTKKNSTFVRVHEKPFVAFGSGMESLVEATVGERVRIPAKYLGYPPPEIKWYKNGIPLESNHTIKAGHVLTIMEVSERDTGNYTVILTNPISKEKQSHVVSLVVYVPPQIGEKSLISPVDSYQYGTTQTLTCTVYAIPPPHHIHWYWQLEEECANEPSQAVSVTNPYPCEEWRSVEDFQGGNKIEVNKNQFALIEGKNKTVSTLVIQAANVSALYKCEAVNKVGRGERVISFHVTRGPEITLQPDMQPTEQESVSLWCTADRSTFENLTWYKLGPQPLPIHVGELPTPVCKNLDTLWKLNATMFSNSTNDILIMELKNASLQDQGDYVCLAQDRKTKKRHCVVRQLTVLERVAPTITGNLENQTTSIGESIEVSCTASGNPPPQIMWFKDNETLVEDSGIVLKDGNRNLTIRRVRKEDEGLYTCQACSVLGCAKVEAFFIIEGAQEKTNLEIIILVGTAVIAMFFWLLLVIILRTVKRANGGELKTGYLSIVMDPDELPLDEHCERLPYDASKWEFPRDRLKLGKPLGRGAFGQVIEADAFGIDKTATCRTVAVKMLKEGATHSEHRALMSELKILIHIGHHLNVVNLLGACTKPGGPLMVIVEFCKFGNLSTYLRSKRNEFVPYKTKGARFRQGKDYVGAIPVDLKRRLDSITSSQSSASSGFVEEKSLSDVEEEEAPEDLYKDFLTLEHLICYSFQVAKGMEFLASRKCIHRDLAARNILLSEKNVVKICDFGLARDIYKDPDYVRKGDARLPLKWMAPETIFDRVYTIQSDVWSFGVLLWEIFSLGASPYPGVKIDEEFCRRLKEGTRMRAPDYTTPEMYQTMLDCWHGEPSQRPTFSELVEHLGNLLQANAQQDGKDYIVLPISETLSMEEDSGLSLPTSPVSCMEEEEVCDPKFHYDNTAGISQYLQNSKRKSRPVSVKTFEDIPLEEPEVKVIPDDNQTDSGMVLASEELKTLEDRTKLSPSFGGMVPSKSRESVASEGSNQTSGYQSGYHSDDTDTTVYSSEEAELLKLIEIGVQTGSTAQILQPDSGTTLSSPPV
Experimental: VEGFR2 (KDR, Proquinase) enzyme assay (auto-phosphorylation assay) was carried out by using Tyrosine Kinase Assay Kit Green (Panvera). The entire assay was conducted in accordance with VEGFR PTK inhibitor cellular activity test S.O.P.
A typical kinase inhibition reaction requires a protein tyrosine kinase, a suitable buffer solution system, a peptide substrate and ATP. In the present VEGFR tyrosine kinase assay, a buffer solution system containing 20 mM HEPES (pH 7.4), 5 mM MgCl2 and 2 mM MnCl2; 50 μM Na3VO4; 200 ng/10 μl VEGFR (Proquinase); 5 μM ATP; and 10 ng/ml poly(Glu, Tyr) (4:1, Sigma) as a substrate were used.
The compounds of Test Example 1 were used as control compounds at a concentration of 0.0001 to 10 μM. After 10 min, 10 μl of poly(Glu, Tyr) as a substrate was added to each well, and 10 μl of ATP was added thereto to initiate kinase reaction. The plate was incubated at room temperature for 1 hour, and 10 μl of 100 mM EDTA was added to each well to terminate the kinase reaction.
The added EDTA was mixed for 5 min. Thereafter, 10 μl of 10× anti-phosphotyrosine antibody (Panvera), 10 μl of 10×PTK Green Tracer (Panvera) and 30 μl of FP dilution buffer (Panvera) were added thereto, and the plate was incubated in a dark room at room temperature for 30 min.

[1] = system: skin cancer cell line, A431; experiment: Inhibitory effect on growth of cancer cell line A431, SRB; format: cell-based; settings: overexpressed EGFR1 (HER-1)
Text: (§1) A skin cancer cell line, A431 (ATCC: CRL-1555), a breast cancer cell line, SK-Br3 (ATCC: HTB-30), and a colon and rectal cancer cell line, SW-620 (ATCC: CCL-227) were used to test the degrees of cancer cell growth inhibition using a culture medium, DEME (Dulbecco's Modified Eagle's Medium, JBI) including 4.5 g/l of glucose and 1.5 g/l of sodium bicarbonate and supplemented with 10% FBS (fetal bovine serum, JBI).
(§2) The cancer cell lines stored in a liquid nitrogen tank were each quickly thawed at 37° C., and centrifuged to remove the medium. The resulting cell pellet was mixed with a culture medium, incubated in a culture flask at 37° C. under 5% CO2 for 2 to 3 days, and the medium was removed. The remaining cells were washed with DPBS (Dulbecco's Phosphate Buffered Saline, JBI) and separated from the flask by using Trypsin-EDTA solution, and the separated cells were diluted with a culture medium to a concentration of 1.0×10^6 cells/ml in case of A431 and SW-620, and 2.0×10^6 cells/ml in case of SK-Br3. 100 μl of the diluted cell solution was added to each well of a 96-well plate, which was incubated at 37° C. under 5% CO2 for 1 day.
(§3) In case that the test compound was not soluble in DMSO, a small amount of 1% HCl was added thereto and treated in a 40° C. water bath for 30 mins until complete dissolution was attained. The test compound solution was diluted with a culture medium to a final concentration of 10 μM, and then diluted 10 times serially to 10^−4. The final concentration of DMSO was less than 1%, and the control compounds of Test Example 1 were used at a concentration of 0.0001 to 10 μM.
(§4) The medium was removed from each well of the 96-well microplate, 100 μl of a diluted test compound solution was added to each well holding cultured cells, and the microplate was incubated at 37° C. under 5% CO2 for 72 hours. After removing the medium from the plate, 50 μl of 10% trichloroacetic acid was added to each well, and the plate was kept at 37° C. for 1 hour to fix the cells to the bottom of the plate. 10% trichloroacetic acid was removed from each well, the plate was dried, 100 μl of an SRB (Sulforhodamine-B, Sigma) dye solution was added thereto, and reacted for 10 mins. The SRB dye solution was prepared by dissolving SRB in 1% acetic acid to a concentration of 0.4%. After removing the dye solution, the plate was washed with water, and dried. When the dye solution was not removed by water, 1% acetic acid was used.
(§5) 150 μl of 10 mM trisma base (Sigma) was added to each well, and the absorbance at 570 nm was determined with a microplate reader (Molecular device).

[2] = system: Human Umbilical Vein Endothelial Cell (HUVEC); experiment: Inhibitory effect on growth of human umbilical vein endothelial cell (HUVEC), MTS; format: cell-based; settings: 10 ng/ml VEGF, absorbance 490 nm
Experimental: HUVECs (Young Science, Inc) were suspended in a culture medium, EBM-2 (Endothelial Basic Media, Cambrex) supplemented with 2% bovine serum (Cambrex) and auxiliary additives for HUVEC culture (e.g., EGF, VEGF, FGF, etc., Cambrex), inoculated into a culture flask coated with 1% gelatin, and incubated in an incubator at 37° C. under 5% CO2 and 100% humidity.
100 μl of 5% bovine serum medium containing 10 ng/ml of vascular endothelial growth factor (VEGF) and auxiliary additives, while excluding other growth factors was added to each well of a 96-well plate. […] DMSO (Dimethylsulfoxide) was used to dissolve the test compounds, and the final concentration of DMSO was less than 1%.
100 μl of the diluted cell solution was added to each well of the 96-well plate, which was incubated in an incubator for 96 hours.
Then, 20 μl of MTS ([…], Promega) solution was added to each well of the plate, and the plate was incubated in an incubator for 4 hours to induce discoloration. After 4 hours, the pellets were dissolved by way of a thorough shaking, and the absorbance at 490 nm was determined.

[3] = system: colon and rectal cancer cell line, SW-620; experiment: Inhibitory effect on growth of cancer cell line SW-620, SRB; format: cell-based; settings: not having overexpressed EGFR and EGFR2
Text: as §1, §2, §3, §4, §5

[4] = system: breast cancer cell line, SK-Br3; experiment: Inhibitory effect on growth of cancer cell line SK-Br3, SRB; format: cell-based; settings: overexpressed EGFR2 (HER-2)
Text: as §1, §2, §3, §4, §5

Chain of EGFR1 (HER-1) (P00533 25-1210): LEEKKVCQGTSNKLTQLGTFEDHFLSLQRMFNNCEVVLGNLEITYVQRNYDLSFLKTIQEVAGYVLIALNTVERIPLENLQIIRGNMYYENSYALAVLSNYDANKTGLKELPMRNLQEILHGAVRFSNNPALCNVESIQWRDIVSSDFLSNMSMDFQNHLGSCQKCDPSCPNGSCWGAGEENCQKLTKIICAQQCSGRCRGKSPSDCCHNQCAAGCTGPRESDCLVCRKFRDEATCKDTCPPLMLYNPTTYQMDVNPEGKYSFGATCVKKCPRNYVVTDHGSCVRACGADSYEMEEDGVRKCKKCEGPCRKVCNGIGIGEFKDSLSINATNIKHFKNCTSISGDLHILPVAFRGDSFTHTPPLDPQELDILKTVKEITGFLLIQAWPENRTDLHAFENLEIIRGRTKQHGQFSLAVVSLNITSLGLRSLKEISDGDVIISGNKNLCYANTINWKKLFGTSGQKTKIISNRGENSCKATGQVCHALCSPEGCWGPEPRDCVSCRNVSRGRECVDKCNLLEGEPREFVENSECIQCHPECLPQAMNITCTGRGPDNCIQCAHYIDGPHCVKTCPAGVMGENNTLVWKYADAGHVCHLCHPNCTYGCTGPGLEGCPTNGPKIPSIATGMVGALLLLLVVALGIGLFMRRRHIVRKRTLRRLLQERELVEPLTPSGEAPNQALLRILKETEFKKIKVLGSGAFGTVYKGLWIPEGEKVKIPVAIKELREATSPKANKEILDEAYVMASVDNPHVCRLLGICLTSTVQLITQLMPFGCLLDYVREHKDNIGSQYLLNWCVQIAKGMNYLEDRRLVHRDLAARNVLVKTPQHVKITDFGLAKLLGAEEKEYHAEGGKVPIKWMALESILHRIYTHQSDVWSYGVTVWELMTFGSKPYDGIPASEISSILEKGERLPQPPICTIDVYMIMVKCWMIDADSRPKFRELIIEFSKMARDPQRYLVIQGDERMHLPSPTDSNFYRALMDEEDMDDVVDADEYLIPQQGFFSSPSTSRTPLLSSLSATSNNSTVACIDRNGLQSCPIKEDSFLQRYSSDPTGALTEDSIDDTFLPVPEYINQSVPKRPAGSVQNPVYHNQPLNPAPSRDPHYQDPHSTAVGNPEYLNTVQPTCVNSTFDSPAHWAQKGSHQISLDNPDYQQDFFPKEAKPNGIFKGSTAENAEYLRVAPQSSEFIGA

| Molecule | IC50 (EGFR1 (HER-1)) [nM] | IC50 (VEGFR2 (KDR)) [nM] | IC50 ([1]; Homo sapiens, A-431, 72 h) [nM] | IC50 ([3]; Homo sapiens, 72 h) [nM] | IC50 ([4]; Homo sapiens, SK-BR-3, 72 h) [nM] | IC50 ([1]; 72 hours) [nM] | IC50 ([3]; 72 hours) [nM] | IC50 ([4]; 72 hours) [nM] | IC50 ([2]; Homo sapiens, 96 h) [nM] | IC50 ([2]; 96 hours) [nM] |
| --- | --- | --- | --- | --- | --- | --- | --- | --- | --- | --- |
| C=CC(=O)Nc1cc2c(Nc3ccc(Br)cc3F)ncnc2cc1OCC1CCN(C(C)=O)CC1 [Example 1, N-[7-(1-acetyl-piperidin-4-ylmethoxy)-4-(4-bromo-2-fluoro-phenylamino)-quinazolin-6-yl]-acrylamide] | 3 | 131 | 48 | 3060 | 283 | – | – | – | 85 | – |
| C=CC(=O)Nc1cc2c(Nc3ccc(Br)cc3F)ncnc2cc1OCC1CCN(C(=O)C(F)(F)F)CC1 [Example 2, N-{4-(4-bromo-2-fluoro-phenylamino)-7-[1-(2,2,2-trifluoro-acetyl)-piperidin-4-ylmethoxy]-quinazolin-6-yl}-acrylamide] | 47 | 250 | 82 | 4580 | 240 | – | – | – | 96 | – |
| C=CC(=O)Nc1cc2c(Nc3ccc(F)c(F)c3F)ncnc2cc1OCC1CCN(C(C)=O)CC1 [Example 7, N-[7-(1-acetyl-piperidin-4-ylmethoxy)-4-(2,3,4-trifluoro-phenylamino)-quinazolin-6-yl]-acrylamide] | 26 | 250 | 38 | 9570 | 67 | – | – | – | 99 | – |
| C=CC(=O)Nc1cc2c(Nc3c(F)cc(Br)cc3F)ncnc2cc1OCC1CCN(C(C)=O)CC1 [Example 8, N-[7-(1-acetyl-piperidin-4-ylmethoxy)-4-(4-bromo-2,6-difluoro-phenylamino)-quinazolin-6-yl]-acrylamide] | 13 | 148 | 20 | 2530 | 149 | – | – | – | 98 | – |
| C=CC(=O)Nc1cc2c(Nc3ccc(Br)cc3F)ncnc2cc1OCCNS(C)(=O)=O [Example 33, N-[4-(4-bromo-2-fluoro-phenylamino)-7-(2-methanesulfonylamino-ethoxy)-quinazolin-6-yl]-acrylamide] | – | 369 | 34 | 10000 | 167 | – | – | – | 390 | – |
| C=CC(=O)Nc1cc2c(Nc3ccc(Br)cc3F)ncnc2cc1OCCNC(=O)c1ccc[nH]1 [Example 99, 1H-pyrrole-2-carboxylic acid {2-[6-acryloylamino-4-(4-bromo-2-fluoro-phenylamino)-quinazolin-7-yloxy]-ethyl}-amide] | – | 997 | 408 | 10000 | 3310 | – | – | – | 989 | – |
| C=CC(=O)Nc1cc2c(Nc3c(F)cc(Br)cc3F)ncnc2cc1OCCNC(C)=O [Example 120, N-[7-(2-acetylamino-ethoxy)-4-(4-bromo-2,6-difluoro-phenylamino)-quinazolin-6-yl]-acrylamide] | – | 127 | 26 | 10000 | 186 | – | – | – | 269 | – |

More lines, main results first:

| IC50 (EGFR1 (HER-1)) [nM] | IC50 (VEGFR2 (KDR)) [nM] | IC50 ([1]; Homo sapiens, A-431, 72 h) [nM] | IC50 ([3]; Homo sapiens, 72 h) [nM] | IC50 ([4]; Homo sapiens, SK-BR-3, 72 h) [nM] | IC50 ([1]; 72 hours) [nM] | IC50 ([3]; 72 hours) [nM] | IC50 ([4]; 72 hours) [nM] | Molecule | IC50 ([2]; Homo sapiens, 96 h) [nM] | IC50 ([2]; 96 hours) [nM] |
| --- | --- | --- | --- | --- | --- | --- | --- | --- | --- | --- |
| 26 | 108 | 48 | 6310 | 216 | – | – | – | C=CC(=O)Nc1cc2c(Nc3ccc(Br)cc3F)ncnc2cc1OCC1CCN(C(=O)CS(C)(=O)=O)CC1 [Example 3, N-{4-(4-bromo-2-fluoro-phenylamino)-7-[1-(2-methanesulfonyl-acetyl)-piperidin-4-ylmethoxy]-quinazolin-6-yl}-acrylamide] | 90 | – |
| 15 | 136 | 25 | 5680 | 147 | – | – | – | C=CC(=O)Nc1cc2c(Nc3ccc(Br)cc3F)ncnc2cc1OCC1CCN(C(N)=O)CC1 [Example 4, 4-[6-acryloylamino-4-(4-bromo-2-fluoro-phenylamino)-quinazolin-7-yloxymethyl]-piperidin-1-carboxylic acid amide] | 87 | – |
| 3 | 203 | 37 | 2350 | 241 | – | – | – | C=CC(=O)Nc1cc2c(Nc3ccc(Br)cc3F)ncnc2cc1OCC1CCN(C(=O)C=C)CC1 [Example 5, N-[7-(1-acryloyl-piperidin-4-ylmethoxy)-4-(4-bromo-2-fluoro-phenylamino)-quinazolin-6-yl]-acrylamide] | 34 | – |
| 56 | 500 | 168 | 8460 | 1350 | – | – | – | C=CC(=O)Nc1cc2c(Nc3ccc(Br)cc3F)ncnc2cc1OCc1ccncc1 [Example 6, N-[4-(4-bromo-2-fluoro-phenylamino)-7-(pyridin-4-ylmethoxy)-quinazolin-6-yl]-acrylamide] | 450 | – |
| – | 749 | – | 724 | 369 | – | – | – | C=CC(=O)Nc1cc2c(Nc3ccc(Br)cc3F)ncnc2cc1OCCNC(=O)CCN [Example 62, N-[7-[2-(3-amino-propionylamino)-ethoxy]-4-(4-bromo-2-fluoro-phenylamino)-quinazolin-6-yl]-acrylamide] | 697 | – |
| – | 114 | 19 | 9560 | 100 | – | – | – | C=CC(=O)Nc1cc2c(Nc3ccc(Cl)cc3F)ncnc2cc1OCCNC(C)=O [Example 112, N-[7-(2-acetylamino-ethoxy)-4-(4-chloro-2-fluoro-phenylamino)-quinazolin-6-yl]-acrylamide] | 189 | – |
| – | 797 | 154 | 10000 | 141 | – | – | – | C=CC(=O)Nc1cc2c(Nc3ccc(Br)cc3F)ncnc2cc1OCCNC(=O)C(CO)N(C)C (stereo not shown) [Example 162, N-{4-(4-bromo-2-fluoro-phenylamino)-7-[2-(2-dimethylamino-3-hydroxy-propionylamino)-ethoxy]-quinazolin-6-yl}-acrylamide] | 882 | – |
| – | 985 | – | – | – | 238 | 10000 | 654 | N-{2-[6-acryloylamino-4-(4-bromo-2-fluoro-phenylamino)-quinazolin-7-yloxy]-ethyl}-malonic acid ethylester [Example 69] | – | 954 |
